We go through 23 molecules from PubChem BioAssay (NCI).

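Each compound was tested at five concentrations against cells in 96-well plates for 48 hours. TGI marks complete inhibition of growth.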 Where a SMILES comes first, the peptide text is derived from it. The star is where a group is joined. OSu = O=C1CCC(=O)N1O* Bounds are passed on as bounds.

Some test systems named below: ACHN renal; DU-145 prostate; HCT-116 colon; HOP-62 NSCLC; NCI-H226 lung; OVCAR-5 ovarian; OVCAR-8 ovarian; SN12C renal; CCRF-CEM leukemia; HS 578T breast.
Common to all, as to experiment: DTP human tumour cell line panel, 48 h

In the case of `C/C(O)=C(\C=NC(=S)c1ccncc1)C(=O)Nc1ccccc1C`, the TGI with ACHN renal, in the assay with DU-145 prostate, in the assay with HCT-116 colon, in the assay on HOP-62 NSCLC, with NCI-H226 lung and with OVCAR-5 ovarian was above 100 µM each time. In addition, the TGI in the assay on OVCAR-8 ovarian and in the assay on SN12C renal was above 100 µM in each case.
Take `NS(=O)(=O)c1nnc(NS(=O)(=O)c2ccc([N+](=O)[O-])cc2)s1`: the total growth inhibition concentration (TGI) in the assay with ACHN renal, in the assay on DU-145 prostate, with HCT-116 colon, in the assay on HOP-62 NSCLC, with NCI-H226 lung and in the assay with OVCAR-5 ovarian was above 100 µM throughout. Moreover, the TGI in the assay with OVCAR-8 ovarian is above 100 µM.
Turning to `COC(=O)CNC(=O)CCC(C)[C@H]1CCC2C3C(C[C@H](OC(C)=O)[C@@]21C)[C@@]1(C)CCC2(C[C@H]1C[C@H]3OC(C)=O)OOC1(CCCCC1)OO2` (some centres not stated), the total growth inhibition concentration (TGI) is 3.85 µM in the assay with ACHN renal; 5.02 µM in the assay on CCRF-CEM leukemia; 6.25 µM in the assay with HCT-116 colon; 1.73 µM in the assay on HOP-62 NSCLC; 6.7 µM in the assay with HS 578T breast; 4.65 µM in the assay on NCI-H226 lung. Besides, the TGI was 6.62 µM with OVCAR-5 ovarian, 4.16 µM in the assay with OVCAR-8 ovarian and 3.17 µM with SN12C renal.
As to `COc1ccc(/C(Cl)=C(\C=O)c2ccc(Cl)cc2)cc1OC`, the concentration for total growth inhibition (TGI) is 13.1 µM in the assay on ACHN renal; 10.3 µM with CCRF-CEM leukemia; 33.3 µM with HCT-116 colon; 42.3 µM with HOP-62 NSCLC; 36.6 µM in the assay on NCI-H226 lung; above 100 µM with OVCAR-5 ovarian. For the same molecule, the TGI in the assay with OVCAR-8 ovarian stood at 28.6 µM; in the assay with SN12C renal, 16.6 µM.
Consider `C/C(O[Si](C(C)C)(C(C)C)C(C)C)=C(\C)C(=O)N(C)c1ccccc1Cl`, for which the TGI in the assay with ACHN renal, in the assay with DU-145 prostate, with HCT-116 colon, with HOP-62 NSCLC, in the assay on NCI-H226 lung and with OVCAR-5 ovarian was above 100 µM each time. Moreover, the total growth inhibition concentration (TGI) in the assay on OVCAR-8 ovarian and with SN12C renal was above 100 µM in each case.
Regarding `C[C@H]1O[C@@H](C(C)(C)C)OC(=O)[C@@H]1C(OC(=O)c1ccccc1)c1cccc2ccccc12` (some centres not stated), the TGI in the assay with ACHN renal, in the assay on CCRF-CEM leukemia, in the assay on HCT-116 colon, with HOP-62 NSCLC, in the assay on HS 578T breast and in the assay on NCI-H226 lung was above 100 µM in each case. Besides, the TGI in the assay on OVCAR-5 ovarian, with OVCAR-8 ovarian and in the assay on SN12C renal was above 100 µM throughout.
Consider `COc1cc(OC)c(OC)cc1/C=C/c1cc[n+](C)c2ccccc12`, for which the total growth inhibition concentration (TGI) in the assay with ACHN renal is above 100 µM; in the assay on CCRF-CEM leukemia it was 80.9 µM; in the assay with DU-145 prostate, above 100 µM; in the assay on HCT-116 colon, above 100 µM; with HOP-62 NSCLC, above 100 µM; with OVCAR-5 ovarian, above 100 µM. The molecule also yielded a TGI in the assay with OVCAR-8 ovarian above 100 µM.
Take `CC12CCC(CC1(Cl)Cl)C2` (configuration not stated): the TGI with ACHN renal, with CCRF-CEM leukemia, in the assay with HOP-62 NSCLC, in the assay with HS 578T breast, with NCI-H226 lung and in the assay with OVCAR-5 ovarian was above 100 µM each time. The TGI with OVCAR-8 ovarian and in the assay on SN12C renal was above 100 µM in each case.
In the case of `OC12c3ccccc3C1CCCCCC21OCCCO1` (configuration not stated), the TGI in the assay on ACHN renal, in the assay on CCRF-CEM leukemia, in the assay on HCT-116 colon, in the assay with HOP-62 NSCLC, with NCI-H226 lung and in the assay with OVCAR-5 ovarian was above 100 µM throughout. Moreover, the TGI in the assay with OVCAR-8 ovarian and in the assay with SN12C renal was above 100 µM each time.
On to `Cc1cc(NS(=O)(=O)c2ccc(Nc3c4ccccc4nc4c(C(=O)NCCO)cccc34)cc2)no1`, for which the TGI in the assay on ACHN renal was above 100 µM; with CCRF-CEM leukemia it was 75.2 µM; in the assay on DU-145 prostate, above 100 µM; in the assay on HOP-62 NSCLC, above 100 µM; in the assay with HS 578T breast, above 100 µM; in the assay with OVCAR-5 ovarian it was above 100 µM. For the same molecule, the TGI with OVCAR-8 ovarian and in the assay with SN12C renal was above 100 µM in each case.
On to `NCCCCC(NC(=O)C(N)Cc1ccc(O)cc1)C(=O)NC(Cc1ccc(O)cc1)C(=O)NC(CCCCN)C(=O)ON1C(=O)CCC1=O` (configuration not stated) (H-YKYK-OSu; configuration not given here), for which the TGI in the assay with ACHN renal, with HCT-116 colon, in the assay with HOP-62 NSCLC, in the assay on HS 578T breast, in the assay on NCI-H226 lung and in the assay on OVCAR-5 ovarian was above 100 µM each time. The TGI with OVCAR-8 ovarian and in the assay with SN12C renal was above 100 µM throughout.
For the molecule `Cc1ccc(C(=O)N/N=C2/C(=O)c3c4ccccc4cc4cccc2c34)cc1`, the total growth inhibition concentration (TGI) was 39.3 µM with ACHN renal; above 100 µM in the assay on CCRF-CEM leukemia; 27.3 µM with HCT-116 colon; 43.4 µM in the assay with HOP-62 NSCLC; 58.1 µM in the assay on HS 578T breast; above 100 µM with NCI-H226 lung. The results for the TGI in the assay with OVCAR-5 ovarian, in the assay with OVCAR-8 ovarian and in the assay on SN12C renal were above 100 µM, above 100 µM and 76.5 µM, respectively.
As to `CC[n+]1c(/C=C/c2ccc(N(CCCl)CCCl)cc2)ccc2cc(I)ccc21`, the TGI with ACHN renal was determined as 9.37 µM; in the assay with HOP-62 NSCLC it was 3.55 µM; in the assay on NCI-H226 lung, 5.63 µM; in the assay with OVCAR-5 ovarian, 7.77 µM; in the assay on SN12C renal it was 2.71 µM.
Consider `O=C(O)c1ccc(Nc2nc3nn(Cc4ccccc4)cc3c(=O)s2)cc1`, for which the TGI with ACHN renal, in the assay on CCRF-CEM leukemia, in the assay with HCT-116 colon, with HOP-62 NSCLC, in the assay on OVCAR-5 ovarian and with OVCAR-8 ovarian was above 100 µM in each case. Besides, the TGI in the assay with SN12C renal is above 100 µM.
Take `O/N=C\C(=Nc1ccc(Cc2ccc(N=C(/C=N\O)NO)cc2)cc1)NO`: the TGI in the assay with ACHN renal, in the assay on CCRF-CEM leukemia, with HCT-116 colon, in the assay on HOP-62 NSCLC, in the assay with NCI-H226 lung and in the assay on OVCAR-5 ovarian was above 100 µM in each case. Further, the TGI in the assay with OVCAR-8 ovarian and in the assay on SN12C renal was above 100 µM each time.
For `COc1ccc(CCN2C(=O)CC34C=CC(CC3C2=O)O4)cc1OC` (configuration not stated), the TGI with ACHN renal, in the assay on CCRF-CEM leukemia, with DU-145 prostate, in the assay on HCT-116 colon, in the assay on HOP-62 NSCLC and in the assay on OVCAR-5 ovarian was above 100 µM each time. Besides, the TGI in the assay with OVCAR-8 ovarian and in the assay on SN12C renal was above 100 µM each time.
As for `C[n+]1cn(-c2nc3ccccc3nc2[N-]S(=O)(=O)c2ccccc2)c2ccccc21`, the TGI in the assay on ACHN renal, in the assay on CCRF-CEM leukemia, in the assay with HCT-116 colon, in the assay with HOP-62 NSCLC, in the assay on HS 578T breast and with NCI-H226 lung was above 100 µM in each case. Further, the concentration for total growth inhibition (TGI) in the assay with OVCAR-5 ovarian, in the assay on OVCAR-8 ovarian and in the assay with SN12C renal was above 100 µM each time.
For `CC(=O)O[C@H]1C(=O)[C@@]2(C)[C@H]([C@H](OC(=O)c3ccccc3)[C@]3(O)C[C@H](OC(=O)[C@H](O)[C@@H](NC(=O)c4ccc(N(C)C)cc4)c4ccccc4)C(C)=C1C3(C)C)[C@]1(OC(C)=O)CO[C@@H]1C[C@@H]2O`, the TGI in the assay on ACHN renal was above 50 µM; in the assay on CCRF-CEM leukemia, 2.34 µM; with HCT-116 colon, above 50 µM; with HOP-62 NSCLC, above 50 µM; in the assay on HS 578T breast it was 0.00632 µM; with OVCAR-5 ovarian, above 50 µM. Further, the TGI in the assay with OVCAR-8 ovarian and with SN12C renal was above 50 µM throughout.
Turning to `CC1(C)OC2OC(COC(=O)c3ccc(C#N)cc3)C3OC(C)(C)OC3C2O1` (configuration not stated), the TGI with ACHN renal, in the assay with CCRF-CEM leukemia, in the assay on DU-145 prostate, with HCT-116 colon, in the assay with HOP-62 NSCLC and in the assay with NCI-H226 lung was above 75 µM each time. Moreover, the TGI in the assay on OVCAR-5 ovarian, in the assay on OVCAR-8 ovarian and with SN12C renal was above 75 µM throughout.
On to `C=CCn1c(=N)/c(=C(\N)O)s/c1=C1/SC(=S)N(c2ccc(C)cc2)C1=O`, for which the concentration for total growth inhibition (TGI) with ACHN renal, in the assay on CCRF-CEM leukemia, with HCT-116 colon, with NCI-H226 lung, in the assay with OVCAR-5 ovarian and in the assay on OVCAR-8 ovarian was above 100 µM throughout.
In the case of `CCOc1cc(-c2nc3cc(F)ccc3s2)ccc1O`, the TGI was found to be 29.9 µM with ACHN renal; 18 µM with CCRF-CEM leukemia; 32.2 µM with DU-145 prostate; 47.3 µM with HCT-116 colon; 34.2 µM in the assay with NCI-H226 lung; 33.3 µM in the assay with OVCAR-5 ovarian. Also, the TGI with OVCAR-8 ovarian was determined as 31.2 µM; in the assay with SN12C renal, 35.6 µM.
On to `COc1ccc2c3c1OC1C(OC)(OC)CC4(C=C2)CN(C)CCC314` (configuration not stated), for which the TGI in the assay with ACHN renal, in the assay with CCRF-CEM leukemia, in the assay on DU-145 prostate, in the assay on HCT-116 colon, with HOP-62 NSCLC and in the assay with NCI-H226 lung was above 100 µM in each case. In addition, the TGI in the assay with OVCAR-5 ovarian, in the assay on OVCAR-8 ovarian and in the assay with SN12C renal was above 100 µM in each case.
On to `O=C(c1ccco1)N(C(=S)N1CCN(c2ccccn2)CC1)c1ccccc1`, for which the TGI in the assay on ACHN renal, in the assay with CCRF-CEM leukemia, in the assay on HCT-116 colon, with HOP-62 NSCLC, in the assay on NCI-H226 lung and with OVCAR-5 ovarian was above 100 µM throughout. The TGI with OVCAR-8 ovarian and in the assay on SN12C renal was above 100 µM each time.

What is called TGI is the concentration at which net growth stops. A lower TGI goes with greater sensitivity of the cells.
